Reference: article PMC6474902, “Examination of novel 4-aminoquinoline derivatives designed and synthesized by a hybrid pharmacophore approach to enhance their anticancer activities” (Scientific Reports, 2019)
Several values for one entry are separate records, joined by “and”; a condition that tells them apart may be missing. Equal entries are not always repeated. Entries after “also recorded” stand apart in the source; their conditions may differ.

Experiments:
Format in all cases: cell-based, human
MCF7 = test: SRB antiproliferative/antigrowth assay
Summary of the method: (§1)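 Cells seeded 24 h before exposure to seven concentrations (100 µM to 0.0064 µM) for 48 h at 37 °C. Growth by TCA fixation and SRB staining, absorbance 515–564 nm, relative to time-zero and untreated controls; GI50 from variable-slope sigmoidal fit, reported as greater/less than range limits when not reached.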

MDA-MB231 = test: SRB antiproliferative/antigrowth assay; conditions: Homo sapiens, MDA-MB-231, 48 h, read-out: GI50 MB231
Summary of the method: as §1

MDA-MB468 = test: SRB antiproliferative/antigrowth assay; conditions: Homo sapiens, MDA-MB-468, 48 h, read-out: GI50 MB468
Summary of the method: as §1

[1] = system: MDA-MB231, MDA-MB468, MCF7 breast cancer cells; 184B5 and MCF10A non-cancer breast cells; test: SRB assay, panel of breast cancer and non-cancer breast cell lines; conditions: judged from GI50 values of Table 1
Procedure: The antigrowth effects of 4-piperazinylquinoline sulfonyl analogs on human breast tumor cells was initially evaluated using MDA-MB468 (a PTEN defective, EGFR positive breast adenocarcioma), MDA-MB231 (p53 and pRB mutated, triple-negative breast carcinoma), and MCF7 (p53+/−, invasive ductal breast carcinoma) cell lines. In addition, the cytotoxicity of all the compounds was also evaluated with the 184B5 and MCF10A non-cancer immortalized breast epithelial cell lines, to determine if these newly synthesized compounds have differential cytotoxic effects on cancer and non-cancer cells. The panel of three breast cancer cell lines with different genetic back ground and the well-studied two non-cancer immortalized breast cell lines would provide insights into the efficacy and toxicity of the test compounds in the different genetic background and at different stages of tumor development. The dose response of each cell line was established by determining the number of viable cells after 48 h of continuous drug treatment against seven different concentrations (100 µM to 0.0064 µM) of each compound. The reading of sulphorodamine B (SRB) staining is known to accurately reflect the level of total cellular macromolecules/cell growth/proliferation[6],[23]. […] The data for CQ and cisplatin were included as references. […] The differences in the GI50 values may be attributable to such factors as the nature of the sulfonyl group and the halogen substitution on the 7th position of the 4-piperazinylquinoline ring system, and the genetic and biochemical background of the cell lines.
Antiproliferative/antigrowth effects were determined by a SRB-based protocol[6],[23]. For a typical screening experiment, 5,000–10,000 cells were inoculated into 100 µL medium per well of a 96-well microtiter plate as described previously. Briefly, after the inoculation, the microtiter plate was incubated at 37 °C, 5% CO2, 95% air and 100% relative humidity for 24 h, prior to addition of experimental drugs. Some of the sample wells were fixed with 25 µL of 50% tricholoroacetic acid (TCA) as a control of the cell population for each cell line at the time of drug addition (Tz). An aliquot of the frozen stock was thawed and diluted to a desired final maximum test-concentration with complete medium. Two to ten-fold serial dilutions were made to provide a total of seven drug concentrations (and a control [C]). Following addition of drugs, the culture plate was incubated for additional 48 h. Cells were fixed in situ by slowly adding 25 µL of ice-cold 50% (w/v) TCA (final concentration, 10% TCA), and were then incubated for 60 min at 4 °C. The supernatant was discarded, and the plate was washed five times with tap water, followed by air-dry. 50 µL of SRB solution at 0.4% (w/v) in 1% acetic acid was added to each well, and the plate was incubated for >30 min at room temperature. Unbound SRB was removed by five washes with tap water, followed by air-drying. The cells “stained” with SRB were solubilized with 10 mM trizma base, and the absorbance was read on an automated plate reader at a wavelength of 515–564 nm. The relative growth rate (%) was calculated for each of the compound concentrations according to the following formula: (Ti−Tz)/(C−Tz)×100
In the formula, time zero (Tz), control growth (C), and OD for different concentration of tested compounds (Ti). The GI50 for each compound was obtained from a non-linear Sigmoidal dose-response (variable slope) curve which is fitted by GraphPad Prism v.4.03 software. Values were calculated for each of these parameters if the level of activity was reached. However, if the effect was not reached or was exceeded, the value for that parameter was expressed as greater or less than the maximum or minimum concentration tested.

HeLa S3 cells = test: Mitotic spindle/centrosome morphology by confocal microscopy; conditions: 5 μM, 6 h after nocodazole synchronization
Description: To gain further insight into the cellular mechanism involved in the cell cycle arrest, we examined cell morphology in the context of mitotic progress. […] Many of these cells are apparently arrested at the spindle checkpoint stage. Even those cells undergo cell division (probably after prolonged arrest) often segregated with uneven cell sizes (arrows in Fig. 6a).
Figure 6 Compound 13 causes the formation of multiple spindle poles and uneven segregation. (a) HeLa S3 cells were synchronized at G2/M by nocodazole, followed by incubation for 6 h in drug-free medium in the absence (Sham control) or presence of 5 μM of compound 13. Note the presence of uneven cell sizes (arrows) which were likely generated as a result of nondisjuctional chromosome segregation during mitosis. […] In contrast, the untreated control sample contains very few cells with abnormal spindles.
All immunocytochemistry experiments were visualized by confocal microscopy using a Zeiss 510 Meta laser scanning microscope (Carl Zeiss) equipped with a 63× objective lens. Three lasers were utilized for excitation with the following band pass filter settings used for detection: Argon 488 nm (band pass 505–530), HeNe 543 nm (long pass 560) and 633 nm (long pass 650). All images were captured and analyzed using LSM 510 software included with the microscope (LSM Image Examiner, Carl Zeiss).

[2] = system: Cdk1, Cdc25C, Wee1 in HeLa S3 cells; test: Western blot of G2-M-G1 regulators after nocodazole release; conditions: 10 µM
Procedure: To gain a better understanding about the molecular mechanism of compound 13 on antigrowth/cell-killing, HeLa S3 cells synchronized at G1/S by double thymidine treatment (DT) (Fig. 4b) were released into complete medium for 6 h, at which time most cells are at late S-G2/M phase (Fig. 4c). The cells were then maintained for additional 6 h in the absence (Fig. 4d) or presence of 10 μM compound 13 (Fig. 4e). More than 62% of cells progressed into G1 of the next cell cycle in the sham control (Fig. 4d). […] Since the level of securin is low, cell cycle is likely arrested prior to the chromatin separation stage in the presence of compound 13.
Figure 5 Compound 13-treated cells are arrested at prometa-metaphase through the inactivation of Cdk1. HeLa S3 cells were synchronized at G2/M phase by incubating in 50 ng/ml nocodazole (noco) for 18 h. The cells were then released into complete medium at time 0 h in the absence (Sham) or presence of 10 µM compound 13. Samples were then taken at the indicated times post-nocodazole. […] (b) Cdk1 may be inactivated by the combination of a high level of Wee1 kinase and inactivation of Cdc25C. The relative intensity of band signals are quantified by densitometry and presented the results in Supplementary Fig. S3.
Western blot and densitometry were carried out as we described previously[29],[30].

**Q.** How did the GI50 (MCF7; Homo sapiens, MCF7, 48 h, read-out: GI50 MCF7) turn out when `O=[N+]([O-])c1ccc(S(=O)(=O)N2CCN(c3ccnc4cc(Cl)ccc34)CC2)c([N+](=O)[O-])c1` [Compound 13, 7-Chloro-4-(4-(2,4-dinitrophenylsulfonyl)piperazin-1-yl)quinoline] was run?
**A.** 2300 ± 100 nM

**Q.** And the “more effective than cisplatin (MCF7)” value (MCF7; ratio of GI50 values)?
**A.** 11.1 fold

**Q.** And the GI50 (MDA-MB231)?
**A.** 3400 ± 100 nM

**Q.** And the GI50 (MDA-MB468)?
**A.** 700 ± 100 nM

**Q.** And the “preferential antigrowth effect on cancer versus non-cancer cells (in words)” value [1]?
**A.** effective and preferential antigrowth effects on cancer cells; also recorded: stronger antigrowth/antiproliferation activity against cancer cells than non-cancer cells

**Q.** What about the “mitotic cells with multiple centrosomes / multiple spindle phenotypes” value (HeLa S3 cells) of the same compound?
**A.** 44% and 44.4%

**Q.** And the “Cdc25C phosphatase activity status” value ([2]; 2–3 h post-nocodazole)?
**A.** almost completely inactive

**Q.** And the “phosphorylation of Thr161 and Tyr15 on Cdk1” value ([2]; 2–3 h post-nocodazole)?
**A.** highly phosphorylated

**Q.** And the Wee1 activity status ([2]; 3 h post-nocodazole)?
**A.** very active
